This is an account of results in US4036846A, “3-Hydroxy and 3-acetoxy-6-triphenyl-methylaminopenams” (priority 1976, dated 1977).

Values joined by “and” are separate entries in the source; they are usually repeats but may differ in a detail not shown here. Equal entries are not always repeated. Structures can show the parent of a compound that is named as a salt. Where two headings read alike, the source gives them in different places.

Holding throughout (test): microbe, parasite or virus in culture
The test system of test [1] is Staph. aureus 01A005. The test is classed as cell-based, Staphlococcus aureus. To be noted: brain-heart infusion agar, 37° C., anaerobic, sodium salts, separate Test Nos. 1-3; for MIC: Staphylococcus aureus.
Test [2] has as its system Staph. aureus 01A006. The class given is cell-based, Staphlococcus aureus. The settings on record: brain-heart infusion agar, 37° C., anaerobic, sodium salts, separate Test Nos. 1-3; for MIC: Staphylococcus aureus.
Test [3] concerns Strep. zoo. 02H001. The class given is cell-based, Streptococcus zoobacter. To be noted: brain-heart infusion agar, 37° C., anaerobic, sodium salts, separate Test Nos. 1-3; for MIC: Streptococcus.
Test [4] relates to Strep. equi. 02I001. The class given is cell-based, Streptococcus equis. To be noted: brain-heart infusion agar, 37° C., anaerobic, sodium salts, separate Test Nos. 1-3.

`COP(=O)(O)C1N2C(=O)C(NC(=O)COc3ccccc3)C2SC1(C)C` (centres unmarked) [6-(2-Phenoxyacetamido)-2,2-dimethyl-3-(0-methylphosphono)penam, sodium salt]: the MIC in test [1] (Staph. aureus 01A005, read-out: MIC (minimal inhibitory concentration)) is 200 µg/mL; in test [2] (Staph. aureus 01A006, read-out: MIC (minimal inhibitory concentration)) it was 200 µg/mL; in test [3] (Strep. zoo. 02H001, read-out: MIC (minimal inhibitory concentration)) it was over 200 µg/mL.
Turning to `CC1(C)S[C@@H]2C(NC(=O)COc3ccccc3)C(=O)N2C1P(=O)(O)O.[Na]` (some centres unmarked) [6-(2-Phenoxyacetamido)-2,2-dimethyl-3-phosphonopenam, sodium salt], the “MIC (minimal inhibitory concentration)” value in test [1] (Staph. aureus 01A005, sodium salt) is over 200 µg/mL; in test [2] (Staph. aureus 01A006, sodium salt) it was over 200 µg/mL; in test [4] (Strep. equi. 02I001, sodium salt) it was 100 µg/mL; in test [3] (Strep. zoo. 02H001, sodium salt), 100 µg/mL and 200 µg/mL. In addition, the MIC in test [1] (01A005, read-out: MIC (minimal inhibitory concentration), Staph. aureus 01A005) was 200 µg/mL; in test [2] (01A006, read-out: MIC (minimal inhibitory concentration), Staph. aureus 01A006), 200 µg/mL; in test [4] (Streptococcus equi, read-out: MIC (minimal inhibitory concentration), Strep. equi. 02I001), over 200 µg/mL; in test [3] (read-out: MIC (minimal inhibitory concentration), Strep. zoo. 02H001), over 200 µg/mL.
